Where no end group is shown, it is not given here. [ ]: non-standard residue; d: D form.
Assays:
[1] = test system: extinction of conditioned flight behaviour; details: cited from earlier work; for retardation of the extinction of conditioned flight behaviour: European Journal of Pharmacology 2, 14 (1967)
[2] = test system: extinction of conditioned flight behaviour; assay: inhibition (retardation) of the extinction of conditioned flight behaviour; psychopharmacological activity; type: in vivo; details: for Potency Ratio with Respect to 4-10 ACTH: 4-10 ACTH = 1
Excerpt: This invention relates to the field of pharmaceutical compounds, and to the sub-field of psychopharmacologically active compounds. The compounds in question show an inhibition of the extinction of conditioned flight behaviour, as a result of which they are eminently suitable for the treatment of mental disorders in which a stimulation of the cerebral function is desired, such as in case of senility. The invention further relates to pharmaceutical compositions containing these peptide compounds or their derivatives where the latter are an active constituent.

Row | Substance | Potency Ratio with Respect to 4-10 ACTH ([2]; Table I) | Potency Ratio with Respect to 4-10 ACTH ([2]; Table II) | other results
1 | 4-10 ACTH: the peptide containing the amino-acid sequence 4-10 from ACTH (MEHFRWG; Corticotropin; UniProt P01189 141-147, looked up, fragment) |  |  | retardation of the extinction of conditioned flight behaviour [1]: as active as ACTH itself
2 | ACTH: natural adrenocorticotropic hormone (SYSMEHFRWGKPVGKKRRPVKVYPNGAEDESAEAFPLEF; Corticotropin; UniProt P01189 138-176, looked up) |  |  | retardation of the extinction of conditioned flight behaviour [1]: retard the extinction
3 | FRWGKPVGKK [7-16 ACTH] | 1 | 1 | 
4 | F[dK]FGKPVGK |  | 1 | 
5 | F[dK]FGKPVGKK | 100 | 100 | 
6 | F[dK]FG[dK]PVGKK |  | 10,000 | 
7 | H-L-Met (→ O)-L-Glu-L-His-L-Phe-D-Lys-L-Phe-OH |  |  | activity relative to the unchanged 4-9 ACTH ([1]; psychopharmacological activity, peptide of the earlier U.S. patents): about 1000 times
8 | Phe-Arg-Trp [7-9 ACTH] | 0.1 |  | 
9 | Phe-[dK]-Phe | 0.1 |  | psychopharmacological activity (in words) ([2]; in vivo): some psychopharmacological activity, although in a latent form
